The numbers were not newly measured in patent publication US7166608B2, “N-aroyl piperazine derivatives as orexin receptor antagonists” (SmithKline Beecham p.l.c., priority 2001, dated 2007), which cites them from elsewhere.

For one series, the system named is freely-feeding rats. The conditions noted are these: central administration, 4 hour time period.
The subject of a further series is rat sleep/EEG. The following applies: central administration at the onset of the normal sleep period.

Regarding “orexin-A: peptide ligand (agonist) of the orexin receptors; human sequence given in the 1st table (EPLPDCCRQKTCSCRLYELLHGAGNHAAGILTLNH; Human orexin A)”, the “increase in food intake over control rats receiving vehicle” value in the series with freely-feeding rats is reported as “approximately four-fold”. Also, the “effect on arousal and sleep” value in the series on rat sleep/EEG was “dose-related increase in arousal”.
